PMC10349806 (Nature Communications, 2023)
Where “and” joins values, the source holds several entries; their conditions need not be identical. Identical values can stand only once.

Target: T1, PfCRT variant D338A (Plasmodium falciparum, UniProt Q9N623, A220S/D338A/I356T/K76T/M74I/N326S/N75E/Q271E/R371I)
T1 sequence (Q9N623 1-424 M74I/N75E/K76T/A220S/Q271E/N326S/D338A/I356T/R371I): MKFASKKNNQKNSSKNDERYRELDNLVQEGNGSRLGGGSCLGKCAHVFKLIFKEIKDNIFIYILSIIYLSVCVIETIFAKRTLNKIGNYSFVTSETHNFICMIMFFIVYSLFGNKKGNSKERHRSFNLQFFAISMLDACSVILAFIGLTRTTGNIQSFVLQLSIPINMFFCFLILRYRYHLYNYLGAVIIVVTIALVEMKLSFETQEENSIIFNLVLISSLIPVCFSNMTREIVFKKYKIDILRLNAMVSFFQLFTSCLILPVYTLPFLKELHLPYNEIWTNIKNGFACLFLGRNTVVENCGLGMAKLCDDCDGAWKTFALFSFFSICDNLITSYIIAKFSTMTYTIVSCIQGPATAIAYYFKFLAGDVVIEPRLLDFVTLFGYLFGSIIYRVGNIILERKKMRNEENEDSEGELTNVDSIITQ
Assay: CQ uptake assay, oocytes expressing D338A
Format: cell-based
Method: Site-directed mutagenesis of PfCRT^Dd2 was performed as described using the megaprimer method with overlap extension[21],[54]. The primer pairs used are listed in Supplementary Table 6. Please note that a codon-optimized and oocyte-adapted version of PfCRT^Dd2 was used[22] (Supplementary Fig. 16). The resulting DNA fragment was cloned into the SP64T expression vector and verified by sequencing.
Oocytes were obtained as described previously. Briefly, adult (>2 years old) female X. laevis frogs (NASCO) were anesthetized in a cooled solution of ethyl 3-amino benzoate methanesulfonate (0.1%, w/v), followed by a surgical removal of parts of the ovary. The ovary lobes were carefully dissected and small pieces of oocytes were incubated in Ca^2+-free ND96 buffer (96 mM NaCl, 2 mM KCl, 1 mM MgCl2 buffered with 5 mM HEPES/NaOH, pH 7.5) supplemented with collagenase D (0.1%, w/v; Roche), BSA (0.5%, w/v), and 9 mm Na2HPO4 at 18 °C for 14-16 h while gentle shaking. After incubation, the oocytes were carefully washed several times with ND96 buffer (96 mM NaCl, 2 mM KCl, 1.8 mM CaCl2, 1 mM MgCl2 buffered with 5 mM HEPES/NaOH, pH 7.5) supplemented with 100 mg l^−1 gentamycin). Defolliculated and healthy-looking stage V-VI oocytes were manually selected for RNA microinjection. The RNA was generated as following: The codon-optimized sequences of PfCRT variants were cloned into the pSP64T expression vector. After vector linearization using the restriction endonucleases BamHI or SalI (New England Biolabs), transcription was performed using the in vitro SP6 mMessage mMachine Kit (Ambion)[34]. The obtained RNA was kept at −80 °C and diluted with nuclease-free water to a concentration of 0.6 μg μl^−1. Precision-bore glass capillary tubes (3.5-inch glass capillaries; Drummond Scientific Co.) were pulled on a vertical puller (P-87 Flaming/Brown micropipette puller, Sutter Instrument Co.), graduated, and placed on a microinjector (Nanoject II Auto-Nanoliter Injector, Drummond Scientific Co.). 50 nl of nuclease-free water alone (control oocytes) or 50 nl of 0.6 μg μl^−1 RNA were injected under stereomicroscopic control. Injected oocytes were incubated for 46–72 h at 18 °C with twice-daily buffer changes before usage in experiments.
Drug uptake assays were performed as described previously[21],[22],[24],[34]. […] The direction of radio-labeled drug transport is here from the mostly acidic extracellular solution (pH 4.5 or 6.0, as indicated) into the oocyte cytosol (pH ∼ 7.2), which corresponds to the efflux of drug from the acidic digestive vacuole (pH 5.2) into the parasite cytoplasm (pH 7.2). The topology of PfCRT in the oolemma is such that both the N- and C-terminus face the extracellular milieu[3],[22]. In the parasite, the N- and C-terminus face the lumen of the digestive vacuole. CQ uptake kinetics were performed by incubating oocytes in ND96 buffer adjusted to a pH of 4.5, 5.0, 5.5, or 6.0 and supplemented with 50 nM [^3H]CQ and one of 7 different CQ concentrations (10 µM, 50 µM, 100 µM, 200 µM, 300 µM, 400 µM, 500 µM CQ). The reaction was stopped at the 60 min time point, which is in the linear uptake range[22],[34] (Supplementary Fig. 17). For determination of the amount of drug uptake for each oocyte, the reaction medium was removed and the oocytes were washed three times with 2 ml of ice-cold ND96 buffer. Each oocyte was individually transferred to a scintillation vial containing 5% sodium dodecyl sulfate (200 μl) for lysis. The radioactivity of each sample was measured using a liquid scintillation analyzer Tri-Carb 4910 TR (PerkinElmer). Oocytes that were injected with water instead of RNA were analyzed in parallel, representing the uptake of a drug by diffusion and/or endogenous permeation pathways. The resulting value represents the “background“ level of drug accumulation in oocytes (in-depth discussion in[22]). […]

[1] = D338A, 50 µM CQ, 1 h, mean ± SEM

CCN(CC)CCCC(C)Nc1ccnc2cc(Cl)ccc12 (stereo not drawn) [CQ, chloroquine]
Activity at pH 4.5 [1]: 2.35 ± 0.19 pmol h-1 oocyte-1 | Activity at pH 6.0 [1]: 5.20 ± 0.52 pmol h-1 oocyte-1 | R-value (D338A, CQ transport at pH 4.5 / pH 6.0): 0.47 ± 0.06 | D338A transport activity pH 4.5 (pH 4.5, single replicates, Fig 1d left): 2.81 pmol oocyte-1 h-1 and 2.11 pmol oocyte-1 h-1 and 2.14 pmol oocyte-1 h-1 | D338A R-value (pH 4.5 vs pH 6.0, Fig 1d left): 0.58 and 0.33 and 0.49 | D338A transport activity pH 6.0 (pH 6.0, single replicates, Fig 1d left): 4.85 pmol oocyte-1 h-1 and 6.43 pmol oocyte-1 h-1 and 4.33 pmol oocyte-1 h-1
